pIC50: −log10 of the molar value. Where only a bound is given, the exact number is not on record here.

The record followed here is US6747039B2, “Aza-benzothiopyranoindazoles with antitumor activity” (Albany Molecular Research, Inc., priority 2002, dated 2004).

One assay concerns HeLa S-3 cells. In words: Inhibition of cell growth (sulforhodamine B) to determine GI50. Type of assay: cell-based. The note with it: Homo sapiens, HeLa S3; HeLa cells; Table 5, aza-analogs; read-out: IC50 (aza-analogs). The method, then: Growth inhibition (GI50) values were measured with HeLa S-3 cells selected for growth on plastic. The procedure was based on the protocol of Skehan et al. (Skehan, P., et al., J. Natl. Cancer Inst., 82:1107-1112 (1990), which is hereby incorporated by reference). HeLa cells were plated at 2×10^4 cells/well in 96 well plates. One day later, a control plate was fixed by addition of TCA to 5%. After five rinses with tap water, the plate was air dried and stored at 4° C. Test compounds were added to the remaining plates at 10-fold dilutions between 0.01 and 100 μM. Two days later, all plates were fixed as described above. Cells were then stained by the addition of 100 μl per well of 0.4% sulforhodamine B (SRB) in 1% acetic acid for 30 min at 4° C. Wells were then quickly rinsed 5× with acetic acid (1%) and allowed to air dry. The SRB was then solubilized by the addition of 100 μl per well of unbuffered 10 mM Tris base. Dye was quantified by measuring absorbance at 490 nm on a Molecular Devices kinetic microplate reader. Growth at each inhibitor concentration relative to the untreated control was calculated according to the following equation: percent growth=100×(T−To)/(C−To), where T was the average optical density (OD) of the test wells after 2 days of treatment, To was the average OD of the wells in the control plate on day 0 and C was the average OD of untreated wells. Plots of percent growth versus inhibitor concentration were used to determine the GI50.
The data below shown in Table 4 summarizes the in vitro cyclin/cdk inhibition constants (IC50) of HeLa Cells for the compounds of the current invention.
The pIC50 is the IC50 on a negative log10 scale, so that one unit is a factor of ten. As for `CCN(CC)CCNc1cccc2sc3ccncc3c(=O)c12`, the pIC50 was 5.52. Consider `CCN(CC)CCNc1ccc(CNC=O)c2sc3ccncc3c(=O)c12`, for which the pIC50 is 6.00. Take `CCN(CC)CCNc1ccc(CN)c2sc3ccncc3c(=O)c12`: the pIC50 is 6.15. Still for that read-out and setting: to `CCN(CC)CCNc1ccc(CNS(C)(=O)=O)c2sc3ccncc3c(=O)c12` belongs 6.40.

With `CCN(CC)CCNc1ccc(CNC(=O)OC)c2sc3ccncc3c(=O)c12`, the pIC50 was 6.52.

Take `CCN(CC)CCn1nc2c3c(cccc31)Sc1ccncc1-2`: the pIC50 is 6.00.

Regarding `CCN(CC)CCn1nc2c3c(c(CN)ccc31)Sc1ccncc1-2` [drawing 112], the pIC50 is 6.70. Same read-out and setting: to `CCN(CC)CCn1nc2c3c(c(CNC=O)ccc31)Sc1ccncc1-2` [drawing 114] belongs 6.70; to `CCN(CC)CCn1nc2c3c(c(CNC(=O)OC)ccc31)Sc1ccncc1-2` [drawing 116], 7.00. Still for that read-out and setting: the result for `CCN(CC)CCn1nc2c3c(c(CNS(C)(=O)=O)ccc31)Sc1ccncc1-2` [drawing 118] reads 6.52. Take `CCN(CC)CCn1nc2c3c(c(CNC(=O)OC)ccc31)Sc1ncccc1-2` [drawing 120]: the pIC50 was 6.30. Regarding `CCN(CC)CCn1nc2c3c(c(CNS(C)(=O)=O)ccc31)Sc1ncccc1-2` [drawing 122], the pIC50 is 6.52. On the same count and under the same terms, to `CCN(CC)CCn1nc2c3c(c(CN)ccc31)Sc1ncccc1-2` [drawing 124] belongs 6.70; to `CCN(CC)CCn1nc2c3c(c(CNC=O)ccc31)Sc1ncccc1-2` [drawing 126], 6.30.

Staying with this assay, now noted: Homo sapiens, HeLa S3; HeLa cells; Table 5, carbocyclic congeners; read-out: IC50 (carbocyclic congeners).
Turning to `CCN(CC)CCNc1cccc2sc3ccccc3c(=O)c12` [reference compound], the pIC50 is under 5.00. On the same count and under the same terms, the result for `CCN(CC)CCNc1ccc(CNC=O)c2sc3ccccc3c(=O)c12` [reference compound] reads 5.52; that for `CCN(CC)CCNc1ccc(CN)c2sc3ccccc3c(=O)c12` [reference compound], 6.22; that for `CCN(CC)CCn1nc2c3c(cccc31)Sc1ccccc1-2` [reference compound], 5.05. `CCN(CC)CCn1nc2c3c(c(CN)ccc31)Sc1ccccc1-2` [reference compound]: the pIC50 was 6.00. The same measure, in the same setting: the result for `CCN(CC)CCn1nc2c3c(c(CNC=O)ccc31)Sc1ccccc1-2` [reference compound] reads 6.00; that for `CCN(CC)CCn1nc2c3c(c(CNC(=O)OC)ccc31)Sc1ccccc1-2` [reference compound], 5.52; that for `CCN(CC)CCn1nc2c3c(c(CNS(C)(=O)=O)ccc31)Sc1ccccc1-2` [reference compound], 6.05.

The same assay, now with this note: Homo sapiens, HeLa S3; Table 6, comparison of nitrogen position, first compound of pair.
In general, GI50 refers to the concentration at which growth is held to half of that of the control. The low end stands for greater sensitivity of the cells, the high end for lower sensitivity of the cells. For `CCN(CC)CCn1nc2c3c(c(C)ccc31)Sc1ccncc1-2`, the GI50 came out at 100 nM. On the same count and under the same terms, the result for `CCN(CC)CCNc1ccc(C)c2sc3ccncc3c(=O)c12` reads 400 nM; that for `CCN(CC)CCn1nc2c3c(c(CN)ccc31)Sc1ccncc1-2` [drawing 127], 200 nM. With `CCN(CC)CCn1nc2c3c(c(CNC=O)ccc31)Sc1ccncc1-2` [drawing 129], the GI50 came to 50 nM. In turn, `CCN(CC)CCn1nc2c3c(c(CNC(=O)OC)ccc31)Sc1ccncc1-2` [drawing 131] registered a GI50 of 100 nM. Same read-out and setting: to `CCN(CC)CCn1nc2c3c(c(CNS(C)(=O)=O)ccc31)Sc1ccncc1-2` [drawing 133] belongs 200 nM.

The assay is the same for the next values; noted with them: Homo sapiens, HeLa S3; Table 6, comparison of nitrogen position, second compound of pair.
`CCN(CC)CCn1nc2c3c(c(C)ccc31)Sc1ncccc1-2` yielded a GI50 of 600 nM. The molecule `CCN(CC)CCNc1ccc(C)c2sc3ncccc3c(=O)c12` displayed a GI50 of 3000 nM. Still for that read-out and setting: to `CCN(CC)CCn1nc2c3c(c(CN)ccc31)Sc1ncccc1-2` [drawing 128] belongs 200 nM. The same measure, in the same setting: to `CCN(CC)CCn1nc2c3c(c(CNC=O)ccc31)Sc1ncccc1-2` [drawing 130] belongs 500 nM. On the same count and under the same terms, to `CCN(CC)CCn1nc2c3c(c(CNC(=O)OC)ccc31)Sc1ncccc1-2` [drawing 132] belongs 500 nM; to `CCN(CC)CCn1nc2c3c(c(CNS(C)(=O)=O)ccc31)Sc1ncccc1-2` [drawing 134], 300 nM.
